Source: patent publication US6737383B1, “Herbicidal oxadiazolidines” (priority 1999, dated 2004)

Key:
[1] = test system: blackgrass; assay: Test B pre/postemergence blackgrass; format: in vivo, Alopecurus myosuroides
Procedure, shortened: (§1)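 Response is a visual 0-to-10 score relative to untreated plants, where 0 means no effect and 10 means complete control, taken twelve to sixteen days after application. Treatments went onto soil at planting and onto foliage of 1- to 4-leaf plants, using a surfactant-containing non-phytotoxic solvent.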

[2] = test system: surinam grass; assay: Test B pre/postemergence surinam grass; format: in vivo, Brachiaria decumbens
Procedure, shortened: as §1

[3] = test system: cocklebur; assay: Test B pre/postemergence cocklebur; format: in vivo, Xanthium strumarium
Procedure, shortened: as §1

[4] = test system: corn; assay: Test B pre/postemergence corn; format: in vivo, Zea mays
Procedure, shortened: as §1

[5] = test system: crabgrass; assay: Test B pre/postemergence crabgrass; format: in vivo, Digitaria sanguinalis
Procedure, shortened: as §1

[6] = test system: giant foxtail; assay: Test B pre/postemergence giant foxtail; format: in vivo, Setaria faberii
Procedure, shortened: as §1

[7] = test system: morningglory; assay: Test B pre/postemergence morningglory; format: in vivo, Ipomoea hederacea
Procedure, shortened: as §1

[8] = test system: pigweed; assay: Test B pre/postemergence pigweed; format: in vivo, Amaranthus retroflexus
Procedure, shortened: as §1

[9] = test system: rape; assay: Test B pre/postemergence rape; format: in vivo, Brassica napus
Procedure, shortened: as §1

[10] = test system: soybean; assay: Test B pre/postemergence soybean; format: in vivo, Glycine max
Procedure, shortened: as §1

[11] = test system: sugar beet; assay: Test B pre/postemergence sugar beet; format: in vivo, Beta vulgaris
Procedure, shortened: as §1

[12] = test system: velvetleaf; assay: Test B pre/postemergence velvetleaf; format: in vivo, Abutilon theophrasti
Procedure, shortened: as §1

[13] = test system: wheat; assay: Test B pre/postemergence wheat; format: in vivo, Triticum aestivum
Procedure, shortened: as §1

[14] = test system: wild oat; assay: Test B pre/postemergence wild oat; format: in vivo, Avena fatua
Procedure, shortened: as §1

[15] = test system: rice; assay: Test B flood test rice; format: in vivo, Oryza sativa
Procedure, shortened: (§2)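 Read-out is a visual response score from 0 (no effect) to 10 (complete control), assigned by comparison with untreated controls. Treatment was applied at the 2-leaf stage, and plants stayed in the greenhouse for twelve to sixteen days before scoring.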

[16] = test system: smallflower flatsedge; assay: Test B flood test smallflower flatsedge; format: in vivo, Cyperus difformis
Procedure, shortened: as §2

[17] = Postemergence, Rate 125 g/ha, scale of 0 to 10 where 0 is no effect and 10 is complete control
[18] = Postemergence, Rate 250 g/ha, scale of 0 to 10, 0 is no effect, 10 is complete control
[19] = Postemergence, Rate 500 g/ha, scale of 0 to 10 where 0 is no effect and 10 is complete control
[20] = Postemergence, Rate 1000 g/ha, scale 0 to 10 (0 no effect, 10 complete control)
[21] = Preemergence, Rate 125 g/ha, scale of 0 to 10 where 0 is no effect and 10 is complete control
[22] = Preemergence, Rate 250 g/ha, scale 0 to 10 (0 no effect, 10 complete control)
[23] = Rate 1000 g/ha, Preemergence, scale 0 to 10 (0 no effect, 10 complete control)
[24] = Preemergence, Rate 500 g/ha, scale of 0 to 10 where 0 is no effect and 10 is complete control
[25] = Pre-emergence, Rate 1000 g/ha, scale 0 to 10 (0 no effect, 10 complete control)
[26] = Rate 125 g/ha, under heading Pre-emergence, flood test species, visual evaluation after twelve to sixteen days
[27] = Rate 250 g/ha, Pre-emergence (flood test species), scale 0 to 10, 0 is no effect, 10 is complete control
[28] = Rate 500 g/ha, Pre-emergence section of Table B, 0 to 10 scale (0 no effect, 10 complete control)

COC(=O)C(C)n1c(=O)on(C(=O)N(c2ccc(Cl)cc2)C(C)C)c1=O (stereo not shown) [Compound 623]
Plant response rating, Blackgrass [1, 17]: 3 | Blackgrass plant response rating [1, 18]: 4 | Plant response rating, Blackgrass [1, 19]: 6 | Blackgrass plant response rating [1, 20]: 7 | Blackgrass plant response rating [1, 21]: 0 | Plant response rating, Blackgrass [1, 22]: 0 | Plant response rating, Blackgrass [1, 23]: 2 | Plant response rating, B. signalgrass [2, 17]: 0 | B. signalgrass plant response rating [2, 18]: 0 | Plant response rating, B. signalgrass [2, 19]: 0 | B. signalgrass plant response rating [2, 20]: 0 | B. signalgrass plant response rating [2, 21]: 0 | Plant response rating, B. signalgrass [2, 22]: 0 | Plant response rating, B. signalgrass [2, 24]: 2 | Plant response rating, B. signalgrass [2, 23]: 4 | Plant response rating, Cocklebur [3, 17]: 0 | Cocklebur plant response rating [3, 18]: 0 | Plant response rating, Cocklebur [3, 19]: 0 | Cocklebur plant response rating [3, 20]: 0 | Cocklebur plant response rating [3, 21]: 0 | Plant response rating, Cocklebur [3, 22]: 0 | Plant response rating, Cocklebur [3, 24]: 0 | Plant response rating, Cocklebur [3, 23]: 0 | Plant response rating, Corn [4, 17]: 0 | Corn plant response rating [4, 18]: 0 | Plant response rating, Corn [4, 19]: 0 | Corn plant response rating [4, 20]: 0 | Corn plant response rating [4, 21]: 0 | Plant response rating, Corn [4, 22]: 0 | Plant response rating, Corn [4, 24]: 0 | Plant response rating, Corn [4, 23]: 0 | Plant response rating, Crabgrass [5, 17]: 0 | Crabgrass plant response rating [5, 18]: 0 | Plant response rating, Crabgrass [5, 19]: 0 | Crabgrass plant response rating [5, 20]: 3 | Crabgrass plant response rating [5, 21]: 0 | Plant response rating, Crabgrass [5, 22]: 0 | Plant response rating, Crabgrass [5, 23]: 0 | Plant response rating, Giant foxtail [6, 17]: 0 | Giant foxtail plant response rating [6, 18]: 0 | Plant response rating, Giant foxtail [6, 19]: 0 | Giant foxtail plant response rating [6, 20]: 2 | Giant foxtail plant response rating [6, 21]: 7 | Plant response rating, Giant foxtail [6, 22]: 8 | Plant response rating, Giant foxtail [6, 24]: 9 | Plant response rating, Giant foxtail [6, 23]: 9 | Plant response rating, Morningglory [7, 17]: 6 | Morningglory plant response rating [7, 18]: 8 | Plant response rating, Morningglory [7, 19]: 10 | Morningglory plant response rating [7, 20]: 10 | Morningglory plant response rating [7, 21]: 0 | Plant response rating, Morningglory [7, 22]: 0 | Plant response rating, Morningglory [7, 24]: 0 | Plant response rating, Morningglory [7, 23]: 0 | Plant response rating, Redroot pigweed [8, 17]: 0 | Redroot pigweed plant response rating [8, 18]: 0 | Redroot pigweed plant response rating [8, 20]: 5 | Redroot pigweed plant response rating [8, 21]: 0 | Plant response rating, Redroot pigweed [8, 22]: 0 | Plant response rating, Redroot pigweed [8, 24]: 0 | Plant response rating, Redroot pigweed [8, 23]: 5 | Plant response rating, Rape [9, 17]: 0 | Rape plant response rating [9, 18]: 0 | Plant response rating, Rape [9, 19]: 0 | Rape plant response rating [9, 20]: 0 | Rape plant response rating [9, 21]: 0 | Plant response rating, Rape [9, 22]: 0 | Plant response rating, Rape [9, 24]: 2 | Plant response rating, Rape [9, 23]: 2 | Plant response rating, Soybean [10, 17]: 0 | Soybean plant response rating [10, 18]: 0 | Soybean plant response rating [10, 20]: 3 | Soybean plant response rating [10, 21]: 0 | Plant response rating, Soybean [10, 22]: 0 | Plant response rating, Soybean [10, 24]: 0 | Plant response rating, Soybean [10, 23]: 0 | Plant response rating, Sugarbeets [11, 17]: 0 | Sugarbeets plant response rating [11, 18]: 0 | Sugarbeets plant response rating [11, 20]: 0 | Sugarbeets plant response rating [11, 21]: 0 | Plant response rating, Sugarbeets [11, 22]: 0 | Plant response rating, Sugarbeets [11, 24]: 2 | Plant response rating, Sugarbeets [11, 23]: 7 | Plant response rating, Velvetleaf [12, 17]: 0 | Velvetleaf plant response rating [12, 18]: 0 | Velvetleaf plant response rating [12, 20]: 2 | Velvetleaf plant response rating [12, 21]: 0 | Plant response rating, Velvetleaf [12, 22]: 0 | Plant response rating, Velvetleaf [12, 24]: 0 | Plant response rating, Velvetleaf [12, 23]: 0 | Plant response rating, Wheat [13, 17]: 0 | Wheat plant response rating [13, 18]: 1 | Wheat plant response rating [13, 20]: 1 | Wheat plant response rating [13, 21]: 0 | Plant response rating, Wheat [13, 22]: 0 | Plant response rating, Wheat [13, 24]: 0 | Plant response rating, Wheat [13, 23]: 3 | Plant response rating, Wild oats [14, 17]: 0 | Wild oats plant response rating [14, 18]: 0 | Wild oats plant response rating [14, 20]: 2 | Wild oats plant response rating [14, 21]: 0 | Plant response rating, Wild oats [14, 22]: 0 | Plant response rating, Wild oats [14, 24]: 2 | Plant response rating, Wild oats [14, 23]: 2 | Rice plant response rating [15, 25]: 0 | Rice plant response rating (0 to 10 scale, 0 is no effect, 10 is complete control) [15, 26]: 0 | Rice plant response rating [15, 27]: 0 | Rice plant response rating [15, 28]: 0 | S. Flatsedge plant response rating [16, 25]: 0 | S. Flatsedge plant response rating (0 to 10 scale, 0 is no effect, 10 is complete control) [16, 26]: 0 | S. Flatsedge plant response rating [16, 27]: 0 | S. Flatsedge plant response rating [16, 28]: 0
